This is an account of results in patent US9388195B2, “Heterocyclic compound” (Takeda Pharmaceutical Company Limited, priority 2010, dated 2016).

The target in test [1] is T1, Cdc7/Dbf4 complex (Homo sapiens, UniProt O00311).
T1 construct: Full-length Cdc7 co-expressed with full-length Dbf4; purchased Carna Biosciences (Kobe)
Nature of the test: Measurement of Cdc7 kinase inhibitory activity (Transcreener ADP HTRF assay). The test is classed as biochemical. The settings on record: read-out: inhibitory rate (%) at 1 μM, test compound 1 μM; Cdc7/Dbf4, 1.0 μm ATP, 10 μg/ml MCM2. As for the experimental part: Full-length Cdc7 co-expressed with full-length Dbf4 was purchased from Carna Biosciences (Kobe). The enzyme activity of Cdc7/Dbf4 complex was detected by homogeneous time-resolved fluorescence method Transcreener ADP assay (Cisbio Inc., MA, U.S.A.). […] Free ADP produced by ATP hydrolysis was detected by Eu^3+-Cryptate-labeled anti-ADP monoclonal antibody competitively with d2-labeled ADP, and the production amount thereof was measured. The obtained time-resolved fluorescence resonance energy transfer signal was measured by EnVision (Perkin Elmer Inc., MA, U.S.A.). The inhibitory rate (%) of the test compound to Cdc7 was calculated by the following formula. Inhibitory rate(%)=(1−(count of test compound-blank)[…](control-blank))×100
The count of the Cdc7/Dbf4 reaction mixture under compound-free conditions was taken as the control, and that under compound-free and Cdc7/Dbf4-free conditions was taken as the blank.

The test system of test [2] is human colorectal cancer cell Colo205. Nature of the test: Measurement of growth inhibitory activity on human colorectal cancer cell Colo205 (CellTiter-Glo). The test is classed as cell-based. The settings on record: COLO 205, 72 h, read-out: inhibitory rate (%) at 1 μM. As for the experimental part: The growth inhibition of colorectal cancer cell Colo205 with the compound of the present invention can be measured as follows.
A cell suspension (100 μl) of human colorectal cancer cell Colo205 (purchased from ATCC) (3,000 cells/well) was plated in a 96 well plate, and cultured in a 5% carbon dioxide gas incubator at 37° C. for 1 day. Each 2 μM test compound solution was added by 100 μl and the cells were cultured for 3 days. CellTiter-Glo™ Luminescent Cell Viability Assay reagent (50 μl, Promega) was added to the 96 well plate, the luminescence level was measured by a luminometer and the residual ATP amount was taken as the cell amount. The luminescence level of a well free of cell plating was taken as a blank. The cell proliferation inhibitory rate (%) of the test compound was calculated by the following formula. Inhibitory rate(%)=(1−(luminescence level of test compound—blank)[…](luminescence level of control group—blank))×100
(In general: Cellular ATP, detected with luciferase, serves as a proxy for viable cell number.)

Test [3] relates to phosphorylated MCM2 (Ser40/Ser41). Nature of the test: Measurement of MCM2 phosphorylation inhibitory activity in human colorectal cancer cell Colo205 (Western blot). The settings on record: COLO 205, 8 h, read-out: inhibitory rate (%) at 1 μM. The test is classed as cell-based. As for the experimental part: The MCM2 phosphorylation suppressive action of the compound of the present invention in human colorectal cancer cell Colo205 can be measured as follows. A cell suspension (500 μl) of human colorectal cancer cell Colo205 (purchased from ATCC) (50,000 cells/well) was plated in a 24 well plate, and cultured in a 5% carbon dioxide gas incubator at 37° C. for 1 day. […] The plate was washed with PBS, the cells were lysed in Laemmli Sample Buffer (BioRad), and cell lysate was treated at 95° C. for 5 min.
In general terms: In western blotting, separated proteins are transferred to a membrane and probed.

Test [4] deals with human colorectal cancer cell Colo205. Nature of the test: Measurement of antitumor activity in human colorectal cancer cell Colo205 cancer bearing mouse. In kind it is in vivo. The settings on record: Colo205 tumor growth ratio, mice, 100 mg/kg orally twice a day for 14 days. As for the experimental part: Tumor volume=long diameter×short diameter×short diameter×(½) Mice having an engrafted tumor volume of about 200 mm^3 were selected, and 5 mice per group were used for the experiment. […] The tumor diameter was measured one day before the start of the administration and the next day of the completion of the administration and the tumor volume was calculated. The tumor growth ratio of the test compound administration group as compared to that of the control administration group was taken as T/C(%) and calculated by the following formula. T/C(%)=(tumor volume of test compound administration group after completion of administration−tumor volume of test compound administration group one day before start of administration)/(tumor volume of control administration group after completion of administration−tumor volume of control administration group one day before start of administration))×100

The test system of test [5] is phosphorylated MCM2 (Ser40/Ser41). Nature of the test: animal or person. The settings on record: Mus musculus, COLO 205, po, 4 h, read-out: inhibitory rate (%).
Experimental: Human colorectal cancer cell Colo205 was suspended in 50% Matrigel solution, and transplanted into 6- to 7-week-old female BALB/c mice (CLEA Japan, Inc.) at 5.0×10^6 cells by subcutaneous injection. The diameter of the tumor engrafted in 7 to 14 days from the transplantation was measured, and the tumor volume was calculated by the following formula. Tumor volume=long diameter×short diameter×short diameter×(½)
A suspension of the test compound in 0.5% methylcellulose solution (Wako Pure Chemical Industries, Ltd.) was orally administered at a dose shown in the Table to mice having a tumor volume of 150-600 mm^3. The tumor was removed under ether anesthesia at 4 hr after administration of the test compound, and homogenized in Cell Lysis Buffer (Cell Signaling). Using BCA Protein assay kit (Thermo Scientific), the protein in the tumor lysate was quantified, and the protein amount was adjusted. The above-mentioned protein solution was treated with Laemmli Sample Buffer (BioRad) at 95° C. for 5 min.
Then, SDS-PAGE was performed and the protein was transferred onto a PVDF membrane by using iBlot™ gel transfer system (Invitrogen). […] The membrane was washed in the same manner as above, chemical luminescence of antibody-labeled phosphorylated MCM2 protein using SuperSignal West FemtoMaximum Sensitivity Substrate (Pierce Biotechnology) was detected by lumino image analyzer LAS-1000 (Fuji Film).
Using the anti-MCM2 antibody (Santa Cruzu Biotechnology, sc-9839) and HRP-labeled goat IgG polyclonal antibody (Santa Cruzu Biotechnology, sc-2020) and in the same manner as above, the MCM2 protein was detected.
The phosphorylated MCM2 specific activity of each sample was calculated by the following formula. Phosphorylated MCM2 specific activity=(phosphorylated MCM2 luminescence level-background)+(MCM2 luminescence level-background)
The phosphorylated MCM2 protein inhibitory rate (%) of the test compound was calculated by the following formula and shown in Table. […]

Each structure is given as a SMILES string. Where a name gives a salt, the structure may show the parent alone.

T1 sequence (O00311 whole entry): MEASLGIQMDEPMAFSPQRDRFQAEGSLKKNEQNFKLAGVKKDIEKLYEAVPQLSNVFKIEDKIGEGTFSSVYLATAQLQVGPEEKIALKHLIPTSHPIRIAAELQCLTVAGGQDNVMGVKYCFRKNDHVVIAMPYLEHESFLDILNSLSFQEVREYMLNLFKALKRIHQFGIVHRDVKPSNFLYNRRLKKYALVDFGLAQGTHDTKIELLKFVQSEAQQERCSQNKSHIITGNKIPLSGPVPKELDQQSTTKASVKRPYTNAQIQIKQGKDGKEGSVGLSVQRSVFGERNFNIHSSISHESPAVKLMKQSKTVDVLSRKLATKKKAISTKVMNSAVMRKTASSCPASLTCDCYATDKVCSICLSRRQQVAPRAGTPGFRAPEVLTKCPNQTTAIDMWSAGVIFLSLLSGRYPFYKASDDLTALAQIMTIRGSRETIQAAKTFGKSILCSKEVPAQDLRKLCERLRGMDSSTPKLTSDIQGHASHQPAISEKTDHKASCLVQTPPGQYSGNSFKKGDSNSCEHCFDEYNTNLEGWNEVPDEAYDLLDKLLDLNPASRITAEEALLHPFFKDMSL
T1 sequence (Q9UBU7 whole entry partner): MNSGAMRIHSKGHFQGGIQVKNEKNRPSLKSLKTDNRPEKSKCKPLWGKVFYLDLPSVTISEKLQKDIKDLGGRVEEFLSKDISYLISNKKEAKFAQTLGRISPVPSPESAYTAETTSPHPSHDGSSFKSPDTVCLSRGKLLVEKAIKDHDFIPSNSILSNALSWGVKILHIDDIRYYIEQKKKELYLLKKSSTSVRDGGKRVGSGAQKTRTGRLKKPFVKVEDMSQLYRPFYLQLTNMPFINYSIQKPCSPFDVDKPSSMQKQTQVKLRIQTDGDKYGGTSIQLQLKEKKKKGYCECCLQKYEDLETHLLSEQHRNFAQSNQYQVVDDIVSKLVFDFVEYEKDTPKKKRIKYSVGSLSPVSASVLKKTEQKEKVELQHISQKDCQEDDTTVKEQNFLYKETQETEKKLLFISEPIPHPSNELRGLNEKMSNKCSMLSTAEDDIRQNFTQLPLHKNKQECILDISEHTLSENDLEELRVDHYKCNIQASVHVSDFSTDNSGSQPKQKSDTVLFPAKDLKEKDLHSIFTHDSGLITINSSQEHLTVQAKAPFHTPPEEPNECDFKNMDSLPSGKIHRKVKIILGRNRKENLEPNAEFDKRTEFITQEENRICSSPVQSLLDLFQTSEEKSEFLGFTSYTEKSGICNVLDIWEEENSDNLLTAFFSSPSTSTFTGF

With `O=c1[nH]c([C@@H]2CCCCN2)nc2cc(-c3cn[nH]c3C(F)(F)F)sc12` [Example 161, 2-[(2S)-piperidin-2-yl]-6-[5-(trifluoromethyl)-1H-pyrazol-4-yl]thieno[3,2-d]pyrimidin-4 (3H)-one hydrochloride], the inhibition at 1 µM in test [1] was found to be 102%; in test [2], 78.6%; in test [3], 96.2%. Further, the “T/C (%)” value in test [4] is −3.6%. Besides, in test [5], the inhibition at 100 mg/kg was 80.9%.
